Data as given in patent US8609692B2, “TRPV1 antagonists” (AbbVie Inc., priority 2008, dated 2013).

Tests used:
[1] = target: T1, human TRPV1 receptor (hTRPV1) (Homo sapiens, UniProt Q8NER1); test: Capsaicin activation assay (Ca2+ influx, FLIPR); format: cell-based; details: 0.05 μM capsaicin, 1321N1 cells expressing hTRPV1
T1 construct: expressed in transfected cells

human TRPV1 = target: T2, human TRPV1 (Homo sapiens, UniProt Q8NER1); test: Acid activation assay - ratiometric calcium imaging of capsaicin- or acid-induced responses; format: cell-based; details: Example 30 at 3 μM, HEK293-F cells expressing human TRPV1, FIG. 1; for block of TRPV1-mediated increase in intracellular calcium concentration in response to capsaicin: capsaicin 1 μM; for block of TRPV1-mediated increase in intracellular calcium concentration in response to acid: pH 5.5
T2 construct: expressed in transfected cells; host or cells: HEK293-F cells, transient transfection
T2 sequence (Q8NER1 whole entry): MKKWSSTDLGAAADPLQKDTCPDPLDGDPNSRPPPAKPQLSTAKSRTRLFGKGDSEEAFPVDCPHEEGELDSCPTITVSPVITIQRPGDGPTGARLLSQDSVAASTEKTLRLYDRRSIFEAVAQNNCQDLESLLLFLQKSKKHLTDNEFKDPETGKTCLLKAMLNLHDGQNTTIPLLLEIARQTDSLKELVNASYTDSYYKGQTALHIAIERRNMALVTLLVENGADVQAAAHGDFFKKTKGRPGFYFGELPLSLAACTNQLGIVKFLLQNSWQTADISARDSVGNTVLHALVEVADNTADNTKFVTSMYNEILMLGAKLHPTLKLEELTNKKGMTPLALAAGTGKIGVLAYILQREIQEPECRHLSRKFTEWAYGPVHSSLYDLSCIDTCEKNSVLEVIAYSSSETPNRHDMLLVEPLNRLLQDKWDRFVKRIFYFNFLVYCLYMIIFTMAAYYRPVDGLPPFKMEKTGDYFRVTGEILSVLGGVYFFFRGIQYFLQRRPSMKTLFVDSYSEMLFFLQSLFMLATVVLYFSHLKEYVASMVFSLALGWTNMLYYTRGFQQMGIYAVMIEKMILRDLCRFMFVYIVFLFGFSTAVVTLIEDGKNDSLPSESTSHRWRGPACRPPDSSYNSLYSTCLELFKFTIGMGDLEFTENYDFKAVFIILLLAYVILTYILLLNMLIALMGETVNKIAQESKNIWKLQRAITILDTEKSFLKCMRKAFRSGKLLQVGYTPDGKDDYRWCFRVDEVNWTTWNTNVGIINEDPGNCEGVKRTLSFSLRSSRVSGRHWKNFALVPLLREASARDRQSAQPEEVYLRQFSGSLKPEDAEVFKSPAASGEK
Description: The differential effects of TRPV1 antagonists on capsaicin- or acid-induced responses were verified by ratiometric calcium imaging. Transiently transfected HEK293-F cells expressing human TRPV1 were incubated with 5 μM Fura-2AM for 30 minutes at 37° C. Intracellular calcium concentration was measured on an imaging system consisting of the X-Cite™ 120 Fluorescence Illumination System (EXFO) and a Digital Camera (C4742-95, Hamamatsu Photonics) connected to an Olympus 1×71 microscope. Through the control of Slide Book 4.2 software, fluorescence was measured during excitation at 340 and 380 nm; the ratio of the fluorescence at both excitation wavelengths (F340/F380) was monitored. D-PBS, pH 7.4 (Invitrogen, catalog no. 14287) was used as the extracellular solution. Acidic buffer was prepared by titrating D-PBS, pH 7.4 with 7 N HCl to pH 5.5. Agonists and antagonists were prepared in the pH 7.4 or 5.5 solutions. Rapid solution switch was achieved by using a ValveLink system. […] Over the 2100-second time course, the cells were continuously perfused with D-PBS, pH7.4 or challenged sequentially with solutions containing Example 30 (3 μM), Example 30 (3 μM) plus capsaicin (1 μM), Example 30 (3 μM) plus acid (pH 5.5), acid (pH 5.5) alone, or capsaicin (1 μM) alone. The black bars above the traces designate addition and duration of solution applications. Spaces between horizontal bars represent periods in which cells were perfused with D-PBS, pH 7.4.

[2] = Rat telemetry protocol (core body temperature); format: in vivo; details: core body temperature of rats at one hour post dosing (100 μmol/kg, p.o.), relative to vehicle

T1 sequence (Q8NER1 whole entry): as above

| IC50 [1] [nM] | block of TRPV1-mediated increase in intracellular calcium concentration in response to capsaicin (human TRPV1) | block of TRPV1-mediated increase in intracellular calcium concentration in response to acid (human TRPV1) | SMILES | Δ Temp [2] [°C] |
| --- | --- | --- | --- | --- |
| 17 | completely blocked | completely blocked | CC1(C)C[C@@H](NC(=O)Nc2cccc3c2C[C@H](O)CC3)c2ccc(F)cc2O1 [Example 30, N-[(4R)-7-fluoro-2,2-dimethyl-3,4-dihydro-2H-chromen-4-yl]-N′-[(7R)-7-hydroxy-5,6,7,8-tetrahydronaphthalen-1-yl]urea] | 1.1 |
| 20 | completely blocked | completely blocked | CC1(C)C[C@@H](NC(=O)Nc2cccc3c2C[C@@H](O)CC3)c2ccc(F)cc2O1 [Example 31, N-[(4R)-7-fluoro-2,2-dimethyl-3,4-dihydro-2H-chromen-4-yl]-N′-[(7S)-7-hydroxy-5,6,7,8-tetrahydronaphthalen-1-yl]urea] | 1.0 |
